Counter-ions that a name gives are not always drawn. Where no end group is shown, it is not given here.
Experiments:
[1] = test system: neointimal proliferation after vascular injury; conditions: rabbit carotid artery air-drying injury; cited from earlier work
[2] = test system: human cultured vascular smooth muscle cells; conditions: cited from earlier work
[3] = test system: rat cultured vascular smooth muscle cells; conditions: cited from earlier work

| melting point | Compound | also measured |
| --- | --- | --- |
| 167 to 169 °C | CC(C)(C)c1ccc(C(=O)NCCC2COc3ccc(C(=N)N)cc32)cc1 (stereo not shown) (as salt: salt) [Example 1b, 4-tert-Butyl-N-(2-[5-carbamimidoyl-2,3-dihydrobenzofuran-3-yl]ethyl)benzamide] | – |
| 209 to 210 °C | CC(C)(CN)c1ccc(C(=O)NCCC2COc3ccc(C(=N)N)cc32)cc1 (stereo not shown) (as salt: salt) [Example 1c, 4-(2-Amino-1,1-dimethylethyl)-N-(2-[5-carbamimidoyl-2,3-dihydrobenzofuran-3-yl]ethyl)benzamide] | – |
| – | CC(=N)N1CC[C@H](Oc2ccc([C@H](Cc3ccc4ccc(C(=N)N)cc4c3)C(=O)O)cc2)C1 [DX-9065a] | neointimal proliferation [1]: less neointimal proliferation |
| 54 to 56 °C | N=C(N)c1ccc2c(c1)C(CCNC(=O)c1ccc(-c3ccccn3)s1)CO2 (stereo not shown) [Example 1a, 5-(Pyridin-2-yl)-thiophene-2-carboxylic acid (2-[5-carbamimidoyl-2,3-dihydrobenzofuran-3-yl]ethyl)amide] | – |
| 52 to 56 °C | CCC(C)(C)c1ccc(S(=O)(=O)NCCC2COc3ccc(C(=N)N)cc32)cc1 (stereo not shown) [Example 1aar, 3-{2-[4-(1,1-Dimethylpropyl)benzenesulfonylamino]ethyl}-5-carbamimidoyl-2,3-dihydrobenzofuran] | – |
| – | TAP: TAP, cited as example that the mitogenic effect of Factor Xa depends on Factor Xa enzymatic activity (YNRLCIKPRDWIDECDSNEGGERAYFRNGKGGCDSFWICPEDHTGADYYSSYRDCFNACI; ends and bridges not checked; cysteine pairing not given here; UniProt P17726 1-60, looked up) | mitogenesis of cultured vascular smooth muscle cells [2]: inhibited the mitogenesis; mitogenesis of cultured vascular smooth muscle cells [3]: inhibited the mitogenesis |
